The record followed here is a melting point compilation (Tetko et al.; mined from patent text by program, amines drawn as free bases though some values may be those of a salt).

The structures appear in SMILES notation.

`COc1ccc(-c2ccc(=O)[nH]n2)cc1OC1CC2CCC1C2` (configuration not stated): the melting point fell in the range of 188 to 189 °C.

For the molecule `CNC(=O)Nc1ccc(OCC2CCN(c3ccncc3)CC2)cc1`, the melting point lay within 222 to 224 °C.

For `CC(C)n1c(=O)n(C)c(=O)c2c(S(=O)CCCO)n(Cc3cccc4ccccc34)cc21` (configuration not stated), the melting point fell in the range of 184 to 185 °C.

For `Cc1cc2c(c(C(=O)c3ccccc3)c1)NCC2`, the melting point amounted to 84 °C.

The molecule `COc1ccc(CNS(C)(=O)=O)cc1OC` gave a melting point of 78 to 81 °C.

Turning to `CC(=NNC(=N)N)c1sc(-c2ccc(C(C)(C)C)cc2)nc1C`, the melting point fell in the range of 252 to 253 °C.

With `CCN(CC)c1ccc2nc3c4ccc(Br)cc4c(=Nc4ccncc4)cc-3oc2c1`, the melting point is 269 to 271 °C.

In the case of `Cc1ccc(O)c(I)c1`, the melting point fell in the range of 34.5 to 35.5 °C.

Turning to `CC(C)C[C@H](OC(=O)N1CCCCCC1)C(=O)O`, the melting point lay within 86 to 88 °C.

Regarding `COc1ccc(Cn2ncnc2CN2C(=O)c3ccccc3C2=O)cc1`, the melting point was 167 to 172 °C.

As for `CN1CCN(c2ccc(N/C=C3\C(=O)NC(=O)c4ccc(C(=O)O)cc43)cc2)CC1`, the melting point was in the range of 278 to 280 °C.

`O=C(NCCCCCCCNC(=O)c1ccc(OC(F)(F)C(F)Cl)cc1)c1ccc(OC(F)(F)C(F)Cl)cc1` (configuration not stated) yielded a melting point of 153 to 154 °C.

With `COc1cc(C(=O)NCC2c3ccccc3CC(C)N2C(=O)c2ccccc2)cc(OC)c1OC` (configuration not stated), the melting point lay in the range of 160 to 162 °C.

Turning to `O=C1CCC(N2Cc3cc(CNC(=O)Nc4c(Cl)cccc4Cl)ccc3C2=O)C(=O)N1` (configuration not stated), the melting point lay in the range of 238 to 240 °C.

In turn, `N#CC1=C(C#N)Sc2nc3ccccc3nc2S1` returned a melting point of over 300 °C.

`COC(=O)Cc1ccc(OCCNC(=O)C2Cc3ccccc3N2S(=O)(=O)c2ccc(-c3cc(C(F)(F)F)ccc3Cl)cc2)c(Cl)c1` (configuration not stated) showed a melting point of 68 to 76 °C.

Regarding `COc1cccc(N2CCN(C[C@H]3COc4ccc5nc(C)ccc5c4O3)CC2)c1`, the melting point lay within 90 to 91 °C.

As to `CSc1ccc(NC(=O)N(C)O)cc1`, the melting point was in the range of 146 to 148 °C.

For the molecule `CCc1cc(OCc2ccccc2)c2c(Cl)cccc2n1`, the melting point is 78 to 80 °C.

`O=C(O)c1cnc2n1CCc1ccccc1C2=C1CCN(CCc2ccc(OCc3ccc4ccccc4n3)cc2)CC1` gave a melting point of 174 °C.

The molecule `C=C1CN(c2c(F)cc3c(=O)c(C(=O)O)cn([C@@H]4C[C@@H]4F)c3c2OC)C[C@@]1(C)N` displayed a melting point of 100 to 102 °C.

In turn, `CC(O)C(Oc1ccc(NC(=O)NC(=O)c2ccccc2Cl)cc1)c1ccccc1` (configuration not stated) had a melting point of 142 to 144 °C.

As to `C=CCc1ccc2oc(C(=O)OCC)cc(=O)c2c1O`, the melting point fell in the range of 99 to 100 °C.

Take `N#Cc1c(N2CCN(C(=O)c3cccs3)CC2)c2ccccc2n(-c2ccccc2)c1=O`: the melting point came out at 289 °C.

Regarding `COc1ccc(C(=O)c2cccc3c2CCC3C#N)cc1` (configuration not stated), the melting point fell in the range of 109 to 112 °C.

`O=C1CCN(C2c3ccccc3COc3ccc(Br)cc32)CC1` (configuration not stated) showed a melting point of 196 to 200 °C.

Molecule `Cc1cc(-n2ccc(OCc3ccccc3)cc2=O)sc1C(=O)NCc1ccccc1` gave a melting point of 153 to 154 °C.

Turning to `CCOC(=O)NC(=O)n1sc(OCC)nc1=O`, the melting point came out at 119 °C.

As for `Cc1c(C(=O)O)sc2cncc(Oc3ccc(Cl)cc3)c12`, the melting point was in the range of 315 to 317 °C.

Molecule `COC(=O)c1cccc2c1N(CCN(C(C)C)C(C)C)C(=O)/C2=N\NC(N)=O` registered a melting point of 192 to 195 °C.

Molecule `O=S(=O)(Nc1ccccc1Oc1ccc2ncccc2c1)c1ccc(Cl)cc1` came in with a melting point of 151 to 152 °C.

Consider `CC(=O)Nc1c(Cl)cnc(OCCO)c1Cl`, for which the melting point is 131 to 132 °C.

Turning to `COc1cc2c(c(Cl)c1Cl)S(=O)(=O)C(c1ccccc1)=C2C`, the melting point was 197 to 199 °C.

The molecule `COC(=O)c1ccc(CN2C(=O)C3(COc4cc5c(cc43)OCCO5)c3ccccc32)cc1` (configuration not stated) had a melting point of 167 to 169 °C.

In turn, `CNC(=O)Nc1cc(NC(=O)/C=C/c2ccc(C(C)(C)C)cc2)ccc1Cl` displayed a melting point of 120 to 122 °C.

`O=C(Nc1ccc(-n2nc(C(F)(F)F)cc2C(F)(F)F)cc1)Nc1ccc(Cl)c([N+](=O)[O-])c1`: the melting point was in the range of 207 to 209 °C.

For `O=C(O)c1ccccc1-c1nc2ccccc2o1`, the melting point is over 250 °C.

`O=C(Nc1nnn[nH]1)c1csc(-c2ccco2)n1` showed a melting point of 275 to 277 °C.

Take `O=[N+]([O-])c1ccc2[nH]cc(C3=CCN(Cc4ccccc4)CC3)c2c1`: the melting point fell in the range of 168 to 170 °C.

As to `O=C1CSCC2=C1C(c1ccc(F)c(Br)c1)n1nccc1N2` (configuration not stated), the melting point was 160 to 163 °C.

On to `CC(C)n1c(=O)n(CC#N)c2cc(-c3ncc(C(F)(F)F)cc3Cl)ccc21`, for which the melting point is 158 to 159 °C.

Molecule `CNc1cc(NS(=O)(=O)c2ccc(Cl)cc2)nc(NC)n1` had a melting point of 272 to 273 °C.

`CC(C)(C)c1cc(C(=O)CCl)ccc1Cl`: the melting point was 159 °C.

For the molecule `O=Cc1cccc(OCc2ccco2)c1`, the melting point is 144 to 146 °C.

`O=P(O)(O)Cc1cc(C(F)(F)F)cc(C(F)(F)F)c1` had a melting point of 206 to 208 °C.

Take `CC(=O)N(Cc1ccc(C[C@@H](C(=O)O)n2cccc2)cc1)Cc1nc(-c2ccccc2)oc1C`: the melting point lay in the range of 97 to 100 °C.

For the molecule `COCn1ncc2cc(C(=O)NN)ccc21`, the melting point was in the range of 141 to 142 °C.

In turn, `CC(=O)OCC1OC(n2c3ncccc3c3c4c(c5c6cccnc6[nH]c5c32)C(=O)N(CO)C4=O)C(OC(C)=O)C(OC(C)=O)C1OC(C)=O` (configuration not stated) registered a melting point of over 300 °C.

`O=C(O)c1ccc(NCCc2ccc(F)cc2)cc1` showed a melting point of 161 to 163 °C.

Molecule `CCOCOC(=O)Cc1c(C)n(C(=O)c2ccc(Cl)cc2)c2ccc(OC)cc12` had a melting point of 60 to 61 °C.

In the case of `OCC1Cc2c(cc(Cl)c3c(-c4ccccc4F)noc23)O1` (configuration not stated), the melting point is 110 to 111 °C.

As for `O=C(CCCCC(=O)Oc1ccc(NC(=O)c2ccccc2)cc1)CC1CC(O)CC1=O` (configuration not stated), the melting point lay in the range of 143 to 146 °C.

Turning to `CCc1cc(C(=O)c2ccccc2Cl)c(-n2c(C)nnc2COC(=O)c2ccc(Cl)c(Cl)c2)s1`, the melting point is 117 to 119 °C.

Take `CN(C)S(=O)(=O)c1cccc(NN)n1`: the melting point is 117 to 120 °C.

`CN1Cc2c(C#Cc3ccccc3Cl)ncn2-c2ccc(F)cc2C1=O` registered a melting point of 259 to 261 °C.

As to `CCCC(=NOCC)C1=C(O)CC(c2cc(C3CCOC3)no2)CC1=O` (configuration not stated), the melting point turned out to be 85 °C.

As to `CCOP(=O)(COCCOn1cnc2c(N)nc(N)nc21)OCC`, the melting point fell in the range of 139 to 141 °C.

Molecule `O=C(O)CCc1cnoc1-c1ccc([N+](=O)[O-])cc1` came in with a melting point of 204 to 205 °C.

As for `O=C(c1ccc(F)c(Br)c1)N1CCC(Br)C(c2ccccc2)=N1` (configuration not stated), the melting point is 147 to 148 °C.

As to `CC(c1ccccc1)N1CCN(c2nn(C)c3c2Cc2ccccc2-3)CC1` (configuration not stated), the melting point lay within 138 to 139 °C.

With `OCc1sccc1C=Cc1csc2ccccc12`, the melting point lay in the range of 114 to 115 °C.

As to `COC(=O)c1cc(-c2cc(C)[nH]c2C)nn1C`, the melting point lay in the range of 63 to 65 °C.

The molecule `COc1ccc(CC(=O)O)cc1OC1CCCC1` yielded a melting point of 79 to 80 °C.

`CC(=O)O[C@@H]1CN2C(=O)N(c3cc(Cl)cc(Cl)c3)C(=O)[C@]2(Cc2ccc(Br)cc2)C1` gave a melting point of 150 °C.

`CN(C)C(C)(C)c1ccc(-c2nc(Nc3ccc(F)cc3)ncc2C#N)cc1` registered a melting point of 179 °C.

`CCC(=O)NC1COC2=CC3=C(OCCC3)C(=O)C21` (configuration not stated) displayed a melting point of 184 °C.

The molecule `Cc1ccc(-c2ncncc2Br)cc1` displayed a melting point of 81 to 82 °C.

The molecule `CC1(C)CCCNc2ccc([N+](=O)[O-])cc21` came in with a melting point of 99 °C.

With `CSc1ccc(C=O)cc1Cl`, the melting point was in the range of 58 to 59 °C.

`Nc1cc2c(cc1[N+](=O)[O-])CCO2`: the melting point is 140 to 142 °C.

In the case of `COCC1CCCN(/C(C)=C(/C#N)C(N)=S)C1` (configuration not stated), the melting point lay within 151 to 152 °C.

For the molecule `CCCCCCCOC(=S)SC(Cn1ccnc1)c1ccc(Cl)cc1Cl` (configuration not stated), the melting point lay within 107 to 113 °C.

As to `O=C(O)c1ccc2c(c1)C=C(n1ccnc1)CC2`, the melting point was 323 to 326 °C.

The molecule `COC(=O)c1ccc(/C=C(\C)c2ccc3c(c2)SC(C)(C)S3)cc1` came in with a melting point of 86 to 87 °C.

Molecule `COC(=O)CC1c2ccc(Cl)cc2NC(=O)C1[N+](=O)[O-]` (configuration not stated) displayed a melting point of 135 °C.

Take `CN1CCN(C(=S)C2(c3ccccn3)CCCS2)CC1` (configuration not stated): the melting point is 124 °C.

`O=CC1=Cc2cc(-c3ccccc3)ccc2OC1` returned a melting point of 108 to 110 °C.

In the case of `CCn1cc(-c2coc3ccc(-c4nnc(C)o4)cc23)cn1`, the melting point fell in the range of 122 to 123 °C.

For `CN(C)c1cccc(-c2nc3ncccc3o2)c1`, the melting point fell in the range of 208 to 209 °C.

`COc1ccc(C(O)Cc2ccncc2)c2c1OCC2C` (configuration not stated) gave a melting point of 96 to 100 °C.

Molecule `COC(=O)c1ccc(CNc2ccc3c(c2)C(C)(C)CCC3(C)C)cc1` yielded a melting point of 104 to 107 °C.

`O=C1CCC(N2Cc3c(OCC4COc5ccccc5C4)cccc3C2=O)C(=O)N1` (configuration not stated) gave a melting point of 258 to 260 °C.

In turn, `O=C(O)CCCCCSc1ccc(O)cc1` came in with a melting point of 92 to 94 °C.

Molecule `C(#Cc1cnc2ccccc2c1)CCN1CCN(c2ccccn2)CC1` came in with a melting point of 76.5 to 77 °C.

`CCCOc1nsc(NC(=O)NC)c1C(N)=O` registered a melting point of 195 to 198 °C.

Turning to `O=C1CN(C(=O)CN2CC(c3ccc(F)cc3)CC2=O)CCN1` (configuration not stated), the melting point lay within 200 to 203 °C.

`c1ccc(C(=NOC(=NC2CCCCC2)NC2CCCCC2)c2ccccc2)cc1`: the melting point was in the range of 104 to 107 °C.

In turn, `COC(=O)c1cc2ccc(Sc3ccc(C)cc3)nc2s1` showed a melting point of 127 to 130 °C.

Molecule `OC(COc1cc(-c2ccccc2)on1)CN1CCOCC1` (configuration not stated) gave a melting point of 123 to 124 °C.

Take `O=C(CN1C(=O)c2ccccc2C1=O)Nc1ccccc1Oc1ccccc1`: the melting point was 143 °C.

On to `Cc1ccc(S(=O)(=O)OCCc2nc(-c3ccc(Br)cc3)oc2C)cc1`, for which the melting point was found to be 136 °C.

Turning to `CCOCc1nc2nc(O)cnc2c(=O)[nH]1`, the melting point lay in the range of 255 to 256 °C.

A word on the melting point: it is the temperature, or range, at which the solid turns liquid.
